US5098613A, “Anti-inflammatory agents” (Eli Lilly and Company, priority 1990, dated 1992)
Read-outs that look alike come from different tables or passages of the source.

Biological target: T1, leukotriene B4 specific receptor on the membrane of human neutrophils (Homo sapiens, UniProt Q15722)
T1 construct: incubating neutrophils (1×10^7 cells) with 0.1-0.2 nM ^3 H-LTB4; endogenous in cells; host or cells: human peripheral blood neutrophils (buffy coats of two blood donors)
Experiment: Inhibition of Binding of ^3 H-LTB4 to Peripheral Human Neutrophils
Details: for inhibition at 10 µM: read-out: LTB4 Binding Inhibition; for inhibition at 1 µM: drug concentration 10^-6 M; for inhibition at 0.1 µM: drug concentration 10^-7 M
Method: The effectiveness of compounds to inhibit the binding of leukotriene B4 to a specific receptor on the membrane of human neutrophils was measured by using an adaptation of a radio-ligand binding assay developed by Goldman and Goetzl, J. Immunol., 129, 1600 (1982). Other investigators have developed similar assays (see, e.g., Kreisle, et al., J. Exp. Med., 157, 628 (1983) and Lin, et al., Prostaglandins, 28, 837 (1984)).
Cells used in the assay were isolated by standard techniques of centrifugation on Ficol-Hypaque, dextran 70 sedimentation and hypotonic lysis. The following procedure was used. Freshly-prepared buffy coat layers from two individuals were obtained from a local blood donor center. The cells were mixed and diluted to 484 ml. with phosphate buffered saline containing heparin (10 units/ml) and heat-inactivated calf serum (5%). This was divided into 20 ml. aliquots and the aliquots layered on top of Ficoll-Paque (12 ml.). The material was then centrifuged at 500 g. for 40 minutes at room temperature. The resulting upper layer of platelets and mononuclear cells was discarded. The lower layer containing erythrocytes and neutrophils was retained. Buffer was added (1 ml. per 4 ml. of lower layer) and the suspension mixed. For each milliliter of this mixture, 0.33 ml. of 6% Macrodex was added. After stirring, the cels were allowed to sediment for 1 hour at 37° C. The resulting erythrocyte pellet was discarded and the neutrophil enriched supernatant fluid centrifuged at 500 g. for 10 minutes at 4° C. Erythrocytes still present in this cell pellet were lysed by incubating the cells with 5-8 ml. ice-cold distilled water for 30-45 seconds. Subsequently, the volume was made up to 50 ml. by addition of ice-cold buffer and the cells resuspended. The suspension was then centrifuged at 300 g. for 10 minutes at 4° C. The cells were finally resuspended at a cell density of 2×10^7 cells/ml in the assay buffer. This buffer Consisted of Hanks' balanced salt solution and 0.1% ovalbumin (pH 7.3).
The radio-ligand binding assay was conducted by incubating neutrophils (1×10^7 cells) with 0.1-0.2 nM ^3 H-LTB4 (sp. act. 150-220 Curies/mmol) and test compound (1×10^-5 M and 1×10^-6 M) for 10 minutes at 4° C. The amount of bound ^3 H-LTB4 was then measured and compared with the amount bound in the absence of test compound. The assay was carried out in microcentrifuge tubes by adding first 10 μl test compound dissolved in DMSO, followed by adding 20 μl ^3 H-LTB4 diluted in assay buffer, and finally adding 500 μl of the cell suspension pension. At the end of the 10 minutes incubation, 300 μl of a mixture of dibutyl and dinonyl phthalate (7:2) were added and the tubes centrifuged for 2 minutes in a microcentrifuge. The radioactivity bound to the cell pellet was measured by scintillation spectroscopy. Appropriate corrections for nonspecific bonding of ^3 H-LTB4 were made.

[1] = drug concentration 10^-5 M, 4° C., 10 minutes

T1 sequence (Q15722 whole entry): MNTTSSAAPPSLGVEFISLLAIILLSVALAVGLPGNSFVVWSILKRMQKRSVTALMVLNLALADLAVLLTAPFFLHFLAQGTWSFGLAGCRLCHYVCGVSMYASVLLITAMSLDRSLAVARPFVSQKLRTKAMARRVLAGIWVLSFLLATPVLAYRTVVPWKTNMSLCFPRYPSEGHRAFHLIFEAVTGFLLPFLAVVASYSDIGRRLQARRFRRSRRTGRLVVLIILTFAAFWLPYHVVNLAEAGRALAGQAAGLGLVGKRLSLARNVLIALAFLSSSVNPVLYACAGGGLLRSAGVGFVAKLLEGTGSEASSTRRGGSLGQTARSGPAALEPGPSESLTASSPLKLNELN

Compound	inhibition at 10 µM [1] [%]	inhibition at 1 µM (4° C., 10 minutes) [%]	inhibition at 10 µM [%]	inhibition at 0.1 µM (4° C., 10 minutes) [%]
C=CCc1cc(C(C)=O)c(O)cc1OCCCCCC(=O)OC [Example 94, 6-(4-Acetyl-5-hydroxy-2-allylphenoxy)hexanoic acid, methyl ester]	106	64		
C=CCc1cc(C(C)=O)c(O)cc1OCCCCCC(N)=O [Example 96, 6-(4-Acetyl-5-hydroxy-2-allylphenoxy)hexanamide]	87	37		
C=CCc1cc(C(C)=O)c(O)cc1OCCCCCC(=O)N(C)C [Example 97, 6-(4-Acetyl-5-hydroxy-2-allylphenoxy)-N,N-dimethylhexanamide]	91	53		
CCc1cc(C(C)=O)c(O)cc1OCCCCCCC(=O)NC [Example 99, 7-(-Acetyl-2-ethyl-5-hydroxyphenoxy)N-methylheptanamide]		54	97	
CCc1cc(C(C)=O)c(O)cc1OCCCCCC(C)(C)C(N)=O [Example 101, 7-(4-Acetyl-2-ethyl-5-hydroxyphenoxy)-2,2-methylheptanamide]	101	82		45
C=CCc1cc(C(C)=O)c(O)cc1OCCCCCC(C)=O [Example 102]	97	57		
C=CCc1cc(C(C)=O)c(O)cc1OCCCCCC(C)(C)O [Example 103, 2-Hydroxy-4-(6-hydroxy-6-methylheptyloxy)-5-allylacetophenone]	97	59		
C=CCc1cc(C(=O)c2ccccc2)c(O)cc1OCCCCC#N [Example 104, 5-(4-Benzoyl-5-hydroxy-2-allylphenoxy)pentanenitrile]	32	5		
C=CCc1cc(C(=O)CC)c(O)cc1OCCCCC#N [Example 105, 5-[5-Hydroxy-4-(1-oxopropyl)-2-allylphenoxy]pentanenitrile]	76	35		
C=CCc1cc(C(=O)CCCC(=O)O)c(O)cc1OCCCCC#N [Example 106, 5-[4-(4-Cyanobutoxy)-2-hydroxy-5-allylphenyl)-5-oxopentanoic acid]	9	1		
CCCc1cc(C(C)=O)c(O)cc1OCCCCC#N [Example 118, 5-(4-Acetyl-5-hydroxy-2-propylphenoxy)-pentanenitrile]	83	38		
C=CCc1cc(C(C)=O)c(O)cc1OCCCCc1nnnn1C [Example 119, 2-Hydroxy-4-[4-(1-methyl-lH-tetrazol-5-yl)-butoxy]-5-allylacetophenone]	57	13		
C=CCc1cc(C(C)=O)c(O)cc1OCCCCc1nnn(C)n1 [Example 120, 2-Hydroxy-4-[4-(2-methyl-2H-tetrazol5-yl)butoxy]-5-allylacetophenone]	97	55		
CSCc1cc(C(C)=O)c(O)cc1OCCCCCCC#N [Example 128, 7-[4-Acetyl-5-hydroxy-2-(methylthiomethyl)-phenoxy]heptanenitrile]	97	64		
COCc1cc(C(C)=O)c(O)cc1OCCCCCCC#N [Example 129, 7-[4-Acetyl-5-hydroxy-2-(methoxymethyl)phenoxy]-hdptanentrile]	47	7		
CCc1cc(C(C)=O)c(O)cc1OCCCC(C)(C)C#N [Example 133, 5-(4-Acetyl-2ethyl-5-hydroxyphenoxy)-2,2-dimethylpentanitrile]	89	48		
CCc1cc(C(C)=O)c(O)cc1OCCCC(C)(C)C(=O)O [Example 134, 5-(4-Acetyl-2ethyl-5-hydroxyphenoxy)-2,2-dimethylpentanoic acid]	93	45		

Compound	inhibition at 10 µM [1] [%]	inhibition at 1 µM (4° C., 10 minutes) [%]	inhibition at 10 µM [%]	inhibition at 0.1 µM (4° C., 10 minutes) [%]
CCc1cc(C(C)=O)c(O)cc1OCCCC(C)(C)C(N)=O [Example 135, 5-(4-Acetyl-2-ethyl-5-hydroxyphenoxy)-2,2-dimethylpentamide]	95	55		
CCc1cc(C(C)=O)c(O)cc1OCCCCCN [Example 137, 1-{4-[(5-Aminopentyl)oxy]-5-ethyl-2-hydroxyphenyl}ethanone]	43	22		
CCc1cc(C(C)=O)c(O)cc1OCCCCCNC(C)=O [Example 138, N-[5-(4-Acetyl-2-ethyl-5-hydroxyphenoxy)-pentyl]acetamide]	98	58		
C=CCc1cc(C(C)=O)c(O)cc1OCCCCC#N [Example 139, 5-(4-Acetyl-5-hydroxy-2-allylphenoxy)pentanenitrile]		53	92	
CCOC(=O)Cn1nnc(CCCCOc2cc(O)c(C(C)=O)cc2CC)n1 [Example 141, 5-[4-(4-Acetyl-2-ethyl-5-hydroxyphenoxy)-butyl]-2H-tetrazole-2-acetic acid, ethyl ester]	90	57		
CCOC(=O)Cn1nnnc1CCCCOc1cc(O)c(C(C)=O)cc1CC [Example 142, 5-[4-(4-acetyl-2-ethyl-5-hydroxyphenoxy)butyl]-1H-tetrazole-1-acetic acid, ethyl ester]	34	5		
CCc1cc(C(C)=O)c(O)cc1OCCCCc1nnn(CC(=O)O)n1 [Example 143, 5-[4-(4-Acetyl-2ethyl-5-hydroxyphenoxy)-butyl]-2H-tetrazole-2-acetic acid]	69	27		
CCc1cc(C(C)=O)c(O)cc1OCCCCc1nnnn1CC(=O)O [Example 144, 5-[4-(4-Acetyl-2-ethyl-5-hydroxyphenoxy)-butyl]-1H-tetrazole-1-acetic acid]	63	20		
CCc1cc(C(C)=O)c(O)cc1OCCCCCCC(=O)Nc1nnn[nH]1 [Example 145, 7-(4-Acetyl-2-ethyl-5-hydroxyphenoxy)-N-1H-tetrazol-5-ylheptanamide]	101	85		
CCc1cc(C(C)=O)c(O)cc1OCCCCCn1cncn1 [Example 146]	81	29		
CCOC(=O)c1ccc(COc2cc(O)c(C(C)=O)cc2CC)cc1O [Example 147, 4-[(4-Acetyl-2-ethyl-5-hydroxyphenoxy)methyl]-2-hydroxybenzoic acid, ethyl ester]	2	3		
CCc1cc(C(C)=O)c(O)cc1OCc1ccc(C(=O)O)c(O)c1 [Example 148, 4-[(4-Acetyl-2-ethyl-5-hydroxyphenoxy)methyl]-2-hydroxybenzoic acid]	44	14		
CCc1cc(C(C)=O)c(O)cc1OCCCCCC(C)(C)C(=O)N(C)O [Example 149, 7-(4-Acetyl-2-ethyl-5-hydroxyphenoxy)-N-hydorxy-N,2,2-trimethylheptanamide]	97	65		6
CCc1cc(C(C)=O)c(O)cc1OCCCCCCCC(C)(C)C(=O)N(C)O [Example 150, N-Methyl-N-hydroxy-9-(4-acetyl-2-ethyl-5-hydroxyphenoxy)-2,2-dimethylnonanamide]	90	59		
CCc1cc(CC)c(OCCCCCC(C)(C)c2nnn[nH]2)cc1O [Example 151, 2,4-Diethyl-5-{[6-methyl-6-(1H-tetrazol-5-yl)heptyl]oxy}phenol]	105	103		78
CCc1cc(C(C)=NO)c(O)cc1OCCCCCC(C)(C)C(=O)O [Example 152, 7-{4-[-(Hydroxyimino)ethyl]-2-ethyl-5-hydroxyphenoxy}-2,2-dimethylheptanoicacid]		41		3
